Data: patent publication US12233161B1, “Lipids and lipid nanoparticle formulations” (LONGUIDE BIOPHARMA CORPORATION, priority 2024, dated 2025)

What was measured:
[1] = Particle size and PDI of nucleic acid lipid nanoparticle preparations by dynamic light scattering; assay type: physicochemical
Summary of the method: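 Size read by DLS after diluting the LNP preparation (approx. 0.04 mg/mL mRNA) in ultrapure water with gentle pipette mixing. The same sample, recovered and diluted further with water, was then used for zeta potential measurement.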

mice = assay: In vivo delivery of FLuc-mRNA lipid nanoparticles in mice, in vivo imaging (IVIS); settings: for IVIS: Fluc-mRNA
Summary of the method: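 Mice (n=3) received about 75 μL FLuc-mRNA LNP per mouse intramuscularly (rectus femoris), intravenously (tail vein), intraperitoneally or subcutaneously (back). After injection, D-luciferin (200 μL, 15 mg/mL) was given i.p. 10-15 min before IVIS imaging.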

[2] = Potential characterization of nucleic acid lipid nanoparticle preparations; assay type: physicochemical
Description: 20 μL of the nucleic acid lipid nanoparticle solution (containing about 0.04 mg/mL mRNA) was taken and added with 780 μL of ultrapure water, used a pipette tip to gently blow and mix, and the potential of the nanopreparation was detected by Malvern particle sizer (model ZEN3700).
27.5 μL nucleic acid lipid nanoparticle solution (containing about 0.04 mg/mL mRNA) was taken and added with 200 μL ultrapure water. A pipette tip was used to gently blow the sample and mix well. The particle size of the nanopreparation was detected by Malvern Dynamic Light Scattering Instrument (Malvern Instruments Ltd., ZEN3700, UK). After the detection, the sample was recovered to an EP tube, and 600 μL of ultrapure water was added, gently blown with a pipette tip, and the potential of the nanopreparation was measured by a Malvern particle size meter.

[3] = DMG-PEG2000:DSPC:Chol:compound 1.40:11.15:38.95:48.50, N/P 20
[4] = IM, DMG-PEG2000:DSPC:Chol:compound 1.40:11.15:38.95:48.50, N/P 20
[5] = IV, organ not given, DMG-PEG2000:DSPC:Chol:compound 1.40:11.15:38.95:48.50, N/P 20
[6] = DMG-PEG2000:DSPC:Chol:compound 1.40:11.15:38.95:48.50, N/P 30
[7] = IM, DMG-PEG2000:DSPC:Chol:compound 1.40:11.15:38.95:48.50, N/P 30
[8] = IV, organ not given, DMG-PEG2000:DSPC:Chol:compound 1.40:11.15:38.95:48.50, N/P 30
[9] = IV, body, DMG-PEG2000:DSPC:Chol:compound 1.40:11.15:38.95:48.50, N/P 30
[10] = IV, liver, DMG-PEG2000:DSPC:Chol:compound 1.40:11.15:38.95:48.50, N/P 30
[11] = IV, lung, DMG-PEG2000:DSPC:Chol:compound 1.40:11.15:38.95:48.50, N/P 30
[12] = IV, spleen, DMG-PEG2000:DSPC:Chol:compound 1.40:11.15:38.95:48.50, N/P 30
[13] = IV, liver, DMG-PEG2000:DSPC:Chol:compound 1.40:11.15:38.95:48.50, N/P 20
[14] = IV, lung, DMG-PEG2000:DSPC:Chol:compound 1.40:11.15:38.95:48.50, N/P 20
[15] = IV, spleen, DMG-PEG2000:DSPC:Chol:compound 1.40:11.15:38.95:48.50, N/P 20

PDI [1, 3]	Particle size (nm) [1, 3]	Zeta potential (mV) [2, 3]	PDI [1, 6]	Particle size (nm) [1, 6]	Zeta potential (mV) [2, 6]	Structure (SMILES)	IVIS (mice; [4])	IVIS (mice; [5])	IVIS (mice; [7])	IVIS (mice; [9])	% of organ targeting (mice; [10])	IVIS (mice; [10])	% of organ targeting (mice; [11])	IVIS (mice; [11])	% of organ targeting (mice; [12])	IVIS (mice; [12])	also measured
0.26	559.3 nm	11.33 mV	–	–	–	CCCCCCCCCCOC(=O)C(O)CN(CCOCCN(CC(O)C(=O)OCCCCCCCCCC)CC(O)C(=O)OCCCCCCCCCC)CC(O)C(=O)OCCCCCCCCCC (centres unmarked) [Compound L0314]	3.31E+05	2.35E+05	–	–	–	–	–	–	–	–	–
–	–	–	0.13	141.63 nm	12.5 mV	CCCCCCCCCCOC(=O)C(O)CN(C)CCCN(C)CCCN(C)CC(O)C(=O)OCCCCCCCCCC (centres unmarked) [Compound L0315]	–	–	8.43E+05	–	–	–	–	–	–	–	IVIS (mice; [8]): 5.00E+05
–	–	–	0.12	125.9 nm	18.97 mV	CCCCCCOC(C)OCCCCCCOC(=O)C(O)CN(CCCN(C)CCCN(CC(O)C(=O)OCCCCCCOC(C)OCCCCCC)CC(O)C(=O)OCCCCCCOC(C)OCCCCCC)CC(O)C(=O)OCCCCCCOC(C)OCCCCCC (centres unmarked) [Compound L0316]	–	–	4.46E+06	–	–	–	–	–	–	–	IVIS (mice; [8]): 3.53E+08
–	–	–	0.15	117.83 nm	13.53 mV	CCCCCCCC/C=C\CCCCCCCCNC(=O)C(O)CN(CCCN(C)CCCN(CC(O)C(=O)NCCCCCCCC/C=C\CCCCCCCC)CC(O)C(=O)NCCCCCCCC/C=C\CCCCCCCC)CC(O)C(=O)NCCCCCCCC/C=C\CCCCCCCC (centres unmarked) [Compound L0317]	–	–	1.53E+06	3.60E+07	3.15%	2.78E+06	79.76%	7.03E+07	17.09%	1.51E+07	–
0.25	571.13 nm	11.23 mV	–	–	–	CCCCCCCCCCOC(=O)C(O)CN(CCCCCN(CC(O)C(=O)OCCCCCCCCCC)CC(O)C(=O)OCCCCCCCCCC)CC(O)C(=O)OCCCCCCCCCC (centres unmarked) [Compound L0318]	5.83E+05	2.09E+05	–	–	–	–	–	–	–	–	–
0.13	172.83 nm	11.20 mV	–	–	–	CCCCCCCCCCCCOC(=O)C(O)CN(CCCCCN(CC(O)C(=O)OCCCCCCCCCCCC)CC(O)C(=O)OCCCCCCCCCCCC)CC(O)C(=O)OCCCCCCCCCCCC (centres unmarked) [Compound L0319]	7.22E+05	1.32E+06	–	–	–	–	–	–	–	–	–
0.10	120.33 nm	10.39 mV	–	–	–	CCCCCCCCCCNC(=O)C(O)CN(CCCCCN(CC(O)C(=O)NCCCCCCCCCC)CC(O)C(=O)NCCCCCCCCCC)CC(O)C(=O)NCCCCCCCCCC (centres unmarked) [Compound L0320]	1.45E+05	6.60E+05	–	–	–	–	–	–	–	–	–
0.48	207.73 nm	−0.61 mV	–	–	–	CCCCCCCCCCOC(=O)C(O)CN(CCCCCCCN(CC(O)C(=O)OCCCCCCCCCC)CC(O)C(=O)OCCCCCCCCCC)CC(O)C(=O)OCCCCCCCCCC (centres unmarked) [Compound L0321]	1.37E+05	2.11E+05	–	–	–	–	–	–	–	–	–
0.40	260.70 nm	9.14 mV	–	–	–	CCCCCCCCCCCCOC(=O)C(O)CN(CCCCCCCN(CC(O)C(=O)OCCCCCCCCCCCC)CC(O)C(=O)OCCCCCCCCCCCC)CC(O)C(=O)OCCCCCCCCCCCC (centres unmarked) [Compound L0322]	8.23E+05	2.72E+05	–	–	–	–	–	–	–	–	–
0.14	94.78 nm	8.37 mV	–	–	–	CCCCCCCCCCNC(=O)C(O)CN(CCCCCCCN(CC(O)C(=O)NCCCCCCCCCC)CC(O)C(=O)NCCCCCCCCCC)CC(O)C(=O)NCCCCCCCCCC (centres unmarked) [Compound L0323]	7.24E+05	–	–	–	–	–	–	–	–	–	IVIS (mice; IV, body, DMG-PEG2000:DSPC:Chol:compound 1.40:11.15:38.95:48.50, N/P 20): 2.95E+06; % of organ targeting (mice; [13]): 44.01%; IVIS (mice; [13]): 8.40E+05; % of organ targeting (mice; [14]): 6.06%; IVIS (mice; [14]): 1.16E+05; % of organ targeting (mice; [15]): 49.93%; IVIS (mice; [15]): 9.53E+05
0.47	445.20 nm	5.44 mV	–	–	–	CCCCCCCCCCOC(=O)C(O)CN(CCOCCOCCN(CC(O)C(=O)OCCCCCCCCCC)CC(O)C(=O)OCCCCCCCCCC)CC(O)C(=O)OCCCCCCCCCC (centres unmarked) [Compound L0324]	4.15E+05	7.27E+05	–	–	–	–	–	–	–	–	–
–	–	–	0.19	110.13 nm	14.07 mV	CCCC/C=C\CCOCOCCCCOC(=O)C(O)CN(CCN(C)CCN(CC(O)C(=O)OCCCCOCOCC/C=C\CCCC)CC(O)C(=O)OCCCCOCOCC/C=C\CCCC)CC(O)C(=O)OCCCCOCOCC/C=C\CCCC (centres unmarked) [Compound L0335]	–	–	1.99E+06	9.08E+07	37.57%	1.92E+07	2.72%	1.39E+06	59.71%	3.05E+07	–
–	–	–	0.13	78.38 nm	4.21 mV	CCCCCCC(CCCCCC)C(=O)OCCCCCCOC(=O)C(O)CN(CCN(C)CCN(CC(O)C(=O)OCCCCCCOC(=O)C(CCCCCC)CCCCCC)CC(O)C(=O)OCCCCCCOC(=O)C(CCCCCC)CCCCCC)CC(O)C(=O)OCCCCCCOC(=O)C(CCCCCC)CCCCCC (centres unmarked) [Compound L0336]	–	–	1.51E+08	9.63E+08	87.42%	1.95E+08	0.71%	1.59E+06	11.87%	2.65E+07	–
–	–	–	0.2	102.07 nm	28.07 mV	CCCCCCCCCCOC(=O)C(O)CN(CCN(C)CCN(CC(O)C(=O)OCCCCCCCCCC)CC(O)C(=O)OCCCCCCCCCC)CC(O)C(=O)OCCCCCCCCCC (centres unmarked) [Compound L0337]	–	–	3.70E+05	2.05E+07	8.23%	2.66E+06	2.94%	9.51E+05	88.83%	2.87E+07	–
–	–	–	0.22	96.63 nm	19.13 mV	CCCCCCCCCCCCCCOC(=O)C(O)CN(CCN(C)CCN(CC(O)C(=O)OCCCCCCCCCCCCCC)CC(O)C(=O)OCCCCCCCCCCCCCC)CC(O)C(=O)OCCCCCCCCCCCCCC (centres unmarked) [Compound L0338]	–	–	3.98E+05	8.55E+06	11.14%	8.81E+05	3.68%	2.91E+05	85.18%	6.73E+06	–
–	–	–	0.15	126.63 nm	12.37 mV	CCCCCCCCCCOC(=O)C(O)CN(CCCN(CC(O)C(=O)OCCCCCCCCCC)CC(O)C(=O)OCCCCCCCCCC)CCCN(CC(O)C(=O)OCCCCCCCCCC)CC(O)C(=O)OCCCCCCCCCC (centres unmarked) [Compound L0339]	–	–	8.33E+07	5.92E+07	28.78%	1.17E+07	0.41%	1.67E+05	70.81%	2.87E+07	–
